Experimental data from patent US20070161807A1, “Method for manufacturing optically pure coumaryl amino acids and the novel coumaryl aminoacids thus obtained” (INSERM (INSTITUT NATIONAL DE LA SANT'E ET DE LA RECHERCHE …, priority 2004, published 2007).

Test: Physicochemical properties: absorption and fluorescence (Table 1)
Settings: for Abs. (nm): absorption wavelength; for Abs. (nm) / Em. (nm): determined in 95% ethanol; for Em. (nm): emission wavelength

SMILES	QY quantum yield	ε (cm^−1 M^−1) extinction coefficient [cm⁻¹ M⁻¹]	Abs. (nm)	Em. (nm)
COc1cc2oc(=O)cc(C[C@H](N)C(=O)O)c2cc1OC.O=C(O)C(F)(F)F [Example 9, (1S)-1-carboxy-2-(6,7-dimethoxy-2-oxo-2H-chromen-4-yl)-ethyl ammonium trifluoroacetate]	0.60	12000	345	445
COc1cc(OC)c2c(C[C@H](N)C(=O)O)cc(=O)oc2c1.O=C(O)C(F)(F)F [Example 14, (1S)-1-carboxy-2-(5,7-dimethoxy-2-oxo-2H-chromen-4-yl)-ethyl ammonium trifluoroacetate]	0.39	11500	324	419
COc1ccc2c(C[C@H](N)C(=O)O)cc(=O)oc2c1.CS(=O)(=O)O [Example 7, (1S)-1-carboxy-2-(7-methoxy-2-oxo-2H-chromen-4-yl)-ethyl ammonium methanesulfonate]	0.18	12000	324	383
N[C@@H](Cc1cc(=O)oc2cc(O)ccc12)C(=O)O.O=C(O)C(F)(F)F [Example 6, (1S)-1-carboxy-2-(7-hydroxy-2-oxo-2H-chromen-4-yl)-ethyl ammonium trifluoroacetate]	0.49	9000	329	464
CCOc1ccc2c(C[C@H](N)C(=O)O)cc(=O)oc2c1.O=C(O)C(F)(F)F [Example 11, (1S)-1-carboxy-2-(7-ethoxy-2-oxo-2H-chromen-4-yl)-ethyl ammonium trifluoroacetate]	0.17	13300	325	387
N[C@@H](Cc1c[nH]c2ccccc12)C(=O)O [W, tryptophan, reference compound]	0.12	5300	278	352
COc1ccc2c(C[C@@H](N)C(=O)O)cc(=O)oc2c1.O=C(O)C(F)(F)F [Example 8, (1R)-1-carboxy-2-(7-methoxy-2-oxo-2H-chromen-4-yl)-ethyl ammonium trifluoroacetate]	0.15	14000	323	386
N[C@@H](Cc1cc(=O)oc2cc(O)c(Cl)cc12)C(=O)O.O=C(O)C(F)(F)F [Example 10, (1S)-1-carboxy-2-(6-chloro, 7-hydroxy-2-oxo-2H-chromen-4-yl)-ethyl ammonium trifluoroacetate]	0.54	10300	331	465
COc1cc(O)c2c(C[C@H](N)C(=O)O)cc(=O)oc2c1.O=C(O)C(F)(F)F [Example 12, (1S)-1-carboxy-2-(5-hydroxy, 7-methoxy-2-oxo-2H-chromen-4-yl)-ethyl ammonium trifluoroacetate]	0.50	6800	329	421
COc1cc(O)cc2oc(=O)cc(C[C@H](N)C(=O)O)c12.O=C(O)C(F)(F)F [Example 13, (1S)-1-carboxy-2-(7-hydroxy, 5-methoxy-2-oxo-2H-chromen-4-yl)-ethyl ammonium trifluoroacetate]	0.18	12700	323	421

Results, then the molecule that gave them:

QY quantum yield	ε (cm^−1 M^−1) extinction coefficient [cm⁻¹ M⁻¹]	Abs. (nm)	Em. (nm)	SMILES
0.13	1400	274	303	N[C@@H](Cc1ccc(O)cc1)C(=O)O [Y, tyrosine, reference compound]
0.17	14600	322	381	COc1ccc2c(CC[C@H](N)C(=O)OCc3ccccc3)cc(=O)oc2c1.O=C(O)C(F)(F)F [Example 17, (1S)-1-benzyloxycarbonyl-3-(7-methoxy-2-oxo-2H-chromen-4-yl)-propyl ammonium trifluoroacetate]
–	11800	327	463	N[C@@H](Cc1cc(=O)oc2cc(O)cc(O)c12)C(=O)O.O=C(O)C(F)(F)F [Example 15, (1S)-1-carboxy-2-(5,7-dihydroxy-2-oxo-2H-chromen-4-yl)-ethyl ammonium trifluoroacetate]
0.21	12500	321	380	COc1ccc2c(CC[C@H](N)C(=O)O)cc(=O)oc2c1.O=C(O)C(F)(F)F [Example 16, (1S)-1-carboxy-3-(7-methoxy-2-oxo-2H-chromen-4-yl)-propyl ammonium trifluoroacetate]
